# Measurements taken from patent US20250223303A1, “TRICYCLIC BORONIC ACID DERIVATIVE, AND PREPARATION METHOD THEREFOR AND APPLICATION THEREOF” (priority 2021, published 2025).
# Legend:
# [1] = system: Escherichia coli ARLG 2829; assay: MIC test of compounds in combination with antibiotics, Escherichia coli ARLG 2829; conditions: for MIC of biapenem in combination with compound, Escherichia coli ARLG-2829 NDM-5, OXA-1: Biapenem + compound (8 μg/mL); for MIC of meropenem in combination with compound, Escherichia coli ARLG-2829 NDM-5, OXA-1: Meropenem + compound (8 μg/mL)
# [2] = system: Klebsiella pneumoniae ARLG 1196; assay: MIC test of compounds in combination with antibiotics, Klebsiella pneumoniae ARLG 1196; conditions: for MIC of biapenem in combination with compound, Klebsiella pneumoniae ARLG-1196 CTM-1 group, SHV, NDM, TEM: Biapenem + compound (8 μg/mL); for MIC of meropenem in combination with compound, Klebsiella pneumoniae ARLG-1196 CTM-1 group, SHV, NDM, TEM: Meropenem + compound (8 μg/mL)
# [3] = system: Klebsiella pneumoniae ATCC BAA-2470; assay: MIC test of compounds in combination with antibiotics, Klebsiella pneumoniae ATCC BAA-2470; conditions: for MIC of biapenem in combination with compound, Klebsiella pneumoniae ATCC BAA-2470 NDM-1: Biapenem + compound (8 μg/mL); for MIC of meropenem in combination with compound, Klebsiella pneumoniae ATCC BAA-2470 NDM-1: Meropenem + compound (8 μg/mL)
# [4] = system: Klebsiella pneumoniae ATCC BAA-1705; assay: MIC test of compounds in combination with antibiotics, Klebsiella pneumoniae ATCC BAA-1705; conditions: for MIC of biapenem in combination with compound, Klebsiella pneumoniae ATCC BAA-1705 KPC-2: Biapenem + compound (8 μg/mL); for MIC of meropenem in combination with compound, Klebsiella pneumoniae ATCC BAA-1705 KPC-2: Meropenem + compound (8 μg/mL)
# [5] = system: Acinetobacter baumannii WX-AB005; assay: MIC test of compounds in combination with antibiotics, Acinetobacter baumannii WX-AB005; conditions: for MIC of biapenem in combination with compound, Acinetobacter baumannii WX-AB005: Biapenem + compound (8 μg/mL); for MIC of meropenem in combination with compound, Acinetobacter baumannii WX-AB005: Meropenem + compound (8 μg/mL)
# [6] = system: Acinetobacter baumannii WX-AB013; assay: MIC test of compounds in combination with antibiotics, Acinetobacter baumannii WX-AB013; conditions: for MIC of biapenem in combination with compound, Acinetobacter baumannii WX-AB013: Biapenem + compound (8 μg/mL); for MIC of meropenem in combination with compound, Acinetobacter baumannii WX-AB013: Meropenem + compound (8 μg/mL)
# [7] = system: Acinetobacter baumannii ARLG-1791 OXA-23; assay: MIC test of compounds in combination with antibiotics, Acinetobacter baumannii ARLG-1791; conditions: for MIC of biapenem in combination with compound, Acinetobacter baumannii ARLG-1791 OXA-23: Biapenem + compound (8 μg/mL); for MIC of meropenem in combination with compound, Acinetobacter baumannii ARLG-1791 OXA-23: Meropenem + compound (8 μg/mL)
# [8] = system: Acinetobacter baumannii ARLG-1809 OXA-23; assay: MIC test of compounds in combination with antibiotics, Acinetobacter baumannii ARLG-1809; conditions: for MIC of biapenem in combination with compound, Acinetobacter baumannii ARLG-1809 OXA-23: Biapenem + compound (8 μg/mL); for MIC of meropenem in combination with compound, Acinetobacter baumannii ARLG-1809 OXA-23: Meropenem + compound (8 μg/mL)
# [9] = system: Acinetobacter baumannii ARLG-1852 OXA-23; assay: MIC test of compounds in combination with antibiotics, Acinetobacter baumannii ARLG-1852; conditions: for MIC of biapenem in combination with compound, Acinetobacter baumannii ARLG-1852 OXA-23: Biapenem + compound (8 μg/mL); for MIC of meropenem in combination with compound, Acinetobacter baumannii ARLG-1852 OXA-23: Meropenem + compound (8 μg/mL)
# [10] = system: Acinetobacter baumannii ARLG-1853 OXA-23; assay: MIC test of compounds in combination with antibiotics, Acinetobacter baumannii ARLG-1853; conditions: for MIC of biapenem in combination with compound, Acinetobacter baumannii ARLG-1853 OXA-23: Biapenem + compound (8 μg/mL); for MIC of meropenem in combination with compound, Acinetobacter baumannii ARLG-1853 OXA-23: Meropenem + compound (8 μg/mL)
Compound,"MIC of biapenem in combination with compound, Escherichia coli ARLG-2829 NDM-5, OXA-1 [1] [µg/mL]","MIC of meropenem in combination with compound, Escherichia coli ARLG-2829 NDM-5, OXA-1 [1] [µg/mL]","MIC of biapenem in combination with compound, Klebsiella pneumoniae ARLG-1196 CTM-1 group, SHV, NDM, TEM [2] [µg/mL]","MIC of meropenem in combination with compound, Klebsiella pneumoniae ARLG-1196 CTM-1 group, SHV, NDM, TEM [2] [µg/mL]","MIC of biapenem in combination with compound, Klebsiella pneumoniae ATCC BAA-2470 NDM-1 [3] [µg/mL]","MIC of meropenem in combination with compound, Klebsiella pneumoniae ATCC BAA-2470 NDM-1 [3] [µg/mL]","MIC of biapenem in combination with compound, Klebsiella pneumoniae ATCC BAA-1705 KPC-2 [4] [µg/mL]","MIC of meropenem in combination with compound, Klebsiella pneumoniae ATCC BAA-1705 KPC-2 [4] [µg/mL]","MIC of biapenem in combination with compound, Acinetobacter baumannii WX-AB005 [5] [µg/mL]","MIC of meropenem in combination with compound, Acinetobacter baumannii WX-AB005 [5] [µg/mL]","MIC of biapenem in combination with compound, Acinetobacter baumannii WX-AB013 [6] [µg/mL]","MIC of meropenem in combination with compound, Acinetobacter baumannii WX-AB013 [6] [µg/mL]","MIC of biapenem in combination with compound, Acinetobacter baumannii ARLG-1791 OXA-23 [7] [µg/mL]","MIC of meropenem in combination with compound, Acinetobacter baumannii ARLG-1791 OXA-23 [7] [µg/mL]","MIC of biapenem in combination with compound, Acinetobacter baumannii ARLG-1809 OXA-23 [8] [µg/mL]","MIC of meropenem in combination with compound, Acinetobacter baumannii ARLG-1809 OXA-23 [8] [µg/mL]","MIC of biapenem in combination with compound, Acinetobacter baumannii ARLG-1852 OXA-23 [9] [µg/mL]","MIC of meropenem in combination with compound, Acinetobacter baumannii ARLG-1852 OXA-23 [9] [µg/mL]","MIC of biapenem in combination with compound, Acinetobacter baumannii ARLG-1853 OXA-23 [10] [µg/mL]","MIC of meropenem in combination with compound, Acinetobacter baumannii ARLG-1853 OXA-23 [10] [µg/mL]"
"O=C(O)c1c(SCCN2CCOCC2)ccc2c1OB(O)C1CC21 (single isomer, unassigned) [Compound 15-b]",0.25,1,≤0.125,≤0.125,≤0.125,1,≤0.125,≤0.125,2,4,1,4,0.5,4,1,2,0.25,2,0.25,4
"O=C(O)c1c(SCCN2CCOCC2)ccc2c1OB(O)C1CC21 (single isomer, unassigned) [Compound 15-a]",1,16,1,2,0.25,8,≤0.125,≤0.125,4,8,2,4,2,8,2,8,1,4,1,16
C[C@H](Sc1ccc2c(c1C(=O)O)OB(O)[C@@H]1C[C@H]21)C1CN(C)C1 [Compound 20-a],0.25,16,≤0.125,2,≤0.125,4,0.5,≤0.125,2,4,0.5,2,0.25,2,0.5,2,0.25,2,0.25,2

# More lines, now with the values ahead:
"MIC of biapenem in combination with compound, Escherichia coli ARLG-2829 NDM-5, OXA-1 [1] [µg/mL]","MIC of meropenem in combination with compound, Escherichia coli ARLG-2829 NDM-5, OXA-1 [1] [µg/mL]","MIC of biapenem in combination with compound, Klebsiella pneumoniae ARLG-1196 CTM-1 group, SHV, NDM, TEM [2] [µg/mL]","MIC of meropenem in combination with compound, Klebsiella pneumoniae ARLG-1196 CTM-1 group, SHV, NDM, TEM [2] [µg/mL]","MIC of biapenem in combination with compound, Klebsiella pneumoniae ATCC BAA-2470 NDM-1 [3] [µg/mL]","MIC of meropenem in combination with compound, Klebsiella pneumoniae ATCC BAA-2470 NDM-1 [3] [µg/mL]","MIC of biapenem in combination with compound, Klebsiella pneumoniae ATCC BAA-1705 KPC-2 [4] [µg/mL]","MIC of meropenem in combination with compound, Klebsiella pneumoniae ATCC BAA-1705 KPC-2 [4] [µg/mL]","MIC of biapenem in combination with compound, Acinetobacter baumannii WX-AB005 [5] [µg/mL]","MIC of meropenem in combination with compound, Acinetobacter baumannii WX-AB005 [5] [µg/mL]","MIC of biapenem in combination with compound, Acinetobacter baumannii WX-AB013 [6] [µg/mL]","MIC of meropenem in combination with compound, Acinetobacter baumannii WX-AB013 [6] [µg/mL]","MIC of biapenem in combination with compound, Acinetobacter baumannii ARLG-1791 OXA-23 [7] [µg/mL]","MIC of meropenem in combination with compound, Acinetobacter baumannii ARLG-1791 OXA-23 [7] [µg/mL]","MIC of biapenem in combination with compound, Acinetobacter baumannii ARLG-1809 OXA-23 [8] [µg/mL]","MIC of meropenem in combination with compound, Acinetobacter baumannii ARLG-1809 OXA-23 [8] [µg/mL]","MIC of biapenem in combination with compound, Acinetobacter baumannii ARLG-1852 OXA-23 [9] [µg/mL]","MIC of meropenem in combination with compound, Acinetobacter baumannii ARLG-1852 OXA-23 [9] [µg/mL]","MIC of biapenem in combination with compound, Acinetobacter baumannii ARLG-1853 OXA-23 [10] [µg/mL]","MIC of meropenem in combination with compound, Acinetobacter baumannii ARLG-1853 OXA-23 [10] [µg/mL]",Compound
0.5,8,≤0.125,4,0.5,16,0.5,0.5,4,8,1,4,1,8,4,8,1,8,1,4,C[C@@H](Sc1ccc2c(c1C(=O)O)OB(O)[C@H]1C[C@@H]21)[C@@H]1CCCO1 [Compound 18-d]
0.25,8,0.5,8,0.25,32,0.5,8,4,32,1,8,2,16,4,32,0.5,4,1,8,"CC(Sc1ccc2c(c1C(=O)O)OB(O)C1CC21)C1CCOCC1 (single isomer, unassigned) [Compound 17-a]"
